Assay [1] addresses T1, CamA (Clostridioides difficile, UniProt Q183J3).
T1 sequence (Q183J3 1-577): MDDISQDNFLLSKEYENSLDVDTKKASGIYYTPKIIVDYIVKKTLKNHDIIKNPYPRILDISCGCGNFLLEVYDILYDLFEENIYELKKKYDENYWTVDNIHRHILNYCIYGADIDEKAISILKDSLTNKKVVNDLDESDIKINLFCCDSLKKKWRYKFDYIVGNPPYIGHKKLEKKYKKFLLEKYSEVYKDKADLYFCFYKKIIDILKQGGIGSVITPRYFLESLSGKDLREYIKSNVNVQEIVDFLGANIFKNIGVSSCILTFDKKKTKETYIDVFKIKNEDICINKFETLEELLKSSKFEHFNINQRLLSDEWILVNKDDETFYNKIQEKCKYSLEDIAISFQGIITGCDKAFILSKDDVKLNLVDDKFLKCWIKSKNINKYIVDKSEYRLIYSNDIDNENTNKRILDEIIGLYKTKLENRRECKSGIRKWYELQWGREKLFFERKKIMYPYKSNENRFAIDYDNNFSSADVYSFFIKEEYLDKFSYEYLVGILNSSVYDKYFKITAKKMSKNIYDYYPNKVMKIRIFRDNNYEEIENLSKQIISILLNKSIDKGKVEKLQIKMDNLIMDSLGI
In kind it is biochemical.

Assay [2] concerns the target T1, CamA. Briefly: Isothermal titration calorimetry. In kind it is binding. For orientation: ITC needs no label: the signal is the heat of the interaction.
A further assay deals with CcrM (Caulobacter vibrioides, UniProt P0CAW2). In kind it is biochemical, Caulobacter crescentus.
CcrM, sequence (P0CAW2 whole entry): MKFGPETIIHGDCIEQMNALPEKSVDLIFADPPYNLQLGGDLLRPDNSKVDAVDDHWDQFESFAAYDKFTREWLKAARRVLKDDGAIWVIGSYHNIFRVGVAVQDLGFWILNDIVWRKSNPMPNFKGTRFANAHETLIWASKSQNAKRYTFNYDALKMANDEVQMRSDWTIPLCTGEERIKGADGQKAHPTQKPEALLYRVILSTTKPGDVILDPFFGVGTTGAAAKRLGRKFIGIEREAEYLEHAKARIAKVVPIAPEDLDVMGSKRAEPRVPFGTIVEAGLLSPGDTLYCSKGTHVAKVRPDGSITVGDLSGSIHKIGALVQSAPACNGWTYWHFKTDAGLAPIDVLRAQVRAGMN
The next assay has as its target T2, Dam (Escherichia coli, UniProt P0AEE8).
T2 sequence (P0AEE8 1-278): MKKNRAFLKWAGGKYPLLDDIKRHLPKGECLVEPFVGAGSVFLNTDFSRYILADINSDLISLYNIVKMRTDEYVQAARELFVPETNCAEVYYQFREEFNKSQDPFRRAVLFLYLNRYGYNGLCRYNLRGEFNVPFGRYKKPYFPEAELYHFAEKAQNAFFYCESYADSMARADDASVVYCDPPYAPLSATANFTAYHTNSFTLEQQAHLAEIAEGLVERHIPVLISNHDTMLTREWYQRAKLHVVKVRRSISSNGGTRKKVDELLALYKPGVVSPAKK
In kind it is biochemical.

For the next assay, the target named is MettL5-Trm112 (Homo sapiens, UniProt Q9NRN9). Format: biochemical.
MettL5-Trm112, sequence (Q9NRN9 whole entry): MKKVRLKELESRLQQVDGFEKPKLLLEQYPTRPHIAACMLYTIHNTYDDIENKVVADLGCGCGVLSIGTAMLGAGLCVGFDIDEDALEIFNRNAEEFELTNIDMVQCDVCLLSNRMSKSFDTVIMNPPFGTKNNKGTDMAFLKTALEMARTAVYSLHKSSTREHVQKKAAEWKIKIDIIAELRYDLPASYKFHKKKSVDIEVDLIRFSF
MettL5-Trm112, sequence (Q9UI30 whole entry partner): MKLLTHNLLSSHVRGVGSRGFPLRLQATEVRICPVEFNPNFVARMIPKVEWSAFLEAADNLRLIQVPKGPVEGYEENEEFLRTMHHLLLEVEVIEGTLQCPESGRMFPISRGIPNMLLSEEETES
Another assay deals with T3, MettL16 (Homo sapiens, UniProt Q86W50).
T3 sequence (Q86W50 1-562): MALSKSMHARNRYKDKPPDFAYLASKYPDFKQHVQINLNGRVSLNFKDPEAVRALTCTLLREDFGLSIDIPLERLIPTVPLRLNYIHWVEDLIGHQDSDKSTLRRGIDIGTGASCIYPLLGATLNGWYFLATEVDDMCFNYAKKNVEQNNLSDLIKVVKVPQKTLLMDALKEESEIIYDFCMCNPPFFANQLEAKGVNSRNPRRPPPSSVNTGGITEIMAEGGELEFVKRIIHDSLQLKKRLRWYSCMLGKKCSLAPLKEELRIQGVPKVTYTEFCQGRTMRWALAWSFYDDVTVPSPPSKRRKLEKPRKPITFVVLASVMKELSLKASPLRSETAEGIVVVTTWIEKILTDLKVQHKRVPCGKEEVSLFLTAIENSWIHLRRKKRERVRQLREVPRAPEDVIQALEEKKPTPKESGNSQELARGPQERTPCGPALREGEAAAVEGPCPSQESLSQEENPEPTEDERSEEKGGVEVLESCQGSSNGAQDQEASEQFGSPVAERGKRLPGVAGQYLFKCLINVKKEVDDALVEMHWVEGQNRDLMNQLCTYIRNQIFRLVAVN
As to the kind of experiment: Selectivity assay, MettL16. Format: biochemical. The following applies: [I] = 10 μM, [SAM] = 160 μM or 30 μM.

A further assay has as its target DOT1L (Homo sapiens, UniProt Q8TEK3). As to the kind of experiment: Selectivity assay, DOT1L. As to conditions: compound 10 μM, 3H-SAM 1 μM. Format: biochemical.
In another assay the target is T4, G9a (Homo sapiens, UniProt Q96KQ7).
T4 sequence (Q96KQ7 1-1210): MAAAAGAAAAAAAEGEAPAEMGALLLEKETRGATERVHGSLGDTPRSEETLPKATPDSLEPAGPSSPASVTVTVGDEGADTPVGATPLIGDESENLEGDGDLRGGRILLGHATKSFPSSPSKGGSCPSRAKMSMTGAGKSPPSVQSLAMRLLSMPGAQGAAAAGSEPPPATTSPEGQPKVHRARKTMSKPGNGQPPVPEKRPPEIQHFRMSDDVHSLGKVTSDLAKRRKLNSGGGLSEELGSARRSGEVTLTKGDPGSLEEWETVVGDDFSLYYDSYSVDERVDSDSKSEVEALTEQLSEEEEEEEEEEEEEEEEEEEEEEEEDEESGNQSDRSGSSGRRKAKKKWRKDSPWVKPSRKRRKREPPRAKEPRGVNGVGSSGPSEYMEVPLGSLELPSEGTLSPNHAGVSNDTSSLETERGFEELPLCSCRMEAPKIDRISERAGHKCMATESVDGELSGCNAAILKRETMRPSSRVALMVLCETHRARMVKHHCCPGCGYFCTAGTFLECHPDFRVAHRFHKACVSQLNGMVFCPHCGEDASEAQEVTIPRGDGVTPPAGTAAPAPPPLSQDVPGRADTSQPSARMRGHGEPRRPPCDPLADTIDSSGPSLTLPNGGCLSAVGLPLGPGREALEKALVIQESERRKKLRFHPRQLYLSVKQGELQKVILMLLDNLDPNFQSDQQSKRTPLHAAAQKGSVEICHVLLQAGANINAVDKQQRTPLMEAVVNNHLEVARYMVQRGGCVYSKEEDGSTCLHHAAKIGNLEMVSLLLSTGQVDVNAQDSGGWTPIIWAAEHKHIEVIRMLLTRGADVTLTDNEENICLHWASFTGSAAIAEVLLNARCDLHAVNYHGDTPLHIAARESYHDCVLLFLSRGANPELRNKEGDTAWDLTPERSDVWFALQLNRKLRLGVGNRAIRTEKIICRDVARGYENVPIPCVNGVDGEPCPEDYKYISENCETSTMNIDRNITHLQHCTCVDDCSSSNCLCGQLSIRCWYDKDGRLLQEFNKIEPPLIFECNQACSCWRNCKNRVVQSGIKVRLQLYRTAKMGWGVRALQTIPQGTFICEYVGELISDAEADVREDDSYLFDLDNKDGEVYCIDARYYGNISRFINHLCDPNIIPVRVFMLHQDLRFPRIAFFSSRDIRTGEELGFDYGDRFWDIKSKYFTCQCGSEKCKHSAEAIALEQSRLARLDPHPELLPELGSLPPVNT
Briefly: Selectivity assay, G9a. As to conditions: compound 10 μM, 3H-SAM 1 μM. Format: biochemical.

The next assay has as its target PRMT1 (Homo sapiens, UniProt Q99873). As to the kind of experiment: Selectivity assay, PRMT1. Format: biochemical. The following applies: compound 10 μM, 3H-SAM 1 μM.

DOT1L, sequence (Q8TEK3 whole entry): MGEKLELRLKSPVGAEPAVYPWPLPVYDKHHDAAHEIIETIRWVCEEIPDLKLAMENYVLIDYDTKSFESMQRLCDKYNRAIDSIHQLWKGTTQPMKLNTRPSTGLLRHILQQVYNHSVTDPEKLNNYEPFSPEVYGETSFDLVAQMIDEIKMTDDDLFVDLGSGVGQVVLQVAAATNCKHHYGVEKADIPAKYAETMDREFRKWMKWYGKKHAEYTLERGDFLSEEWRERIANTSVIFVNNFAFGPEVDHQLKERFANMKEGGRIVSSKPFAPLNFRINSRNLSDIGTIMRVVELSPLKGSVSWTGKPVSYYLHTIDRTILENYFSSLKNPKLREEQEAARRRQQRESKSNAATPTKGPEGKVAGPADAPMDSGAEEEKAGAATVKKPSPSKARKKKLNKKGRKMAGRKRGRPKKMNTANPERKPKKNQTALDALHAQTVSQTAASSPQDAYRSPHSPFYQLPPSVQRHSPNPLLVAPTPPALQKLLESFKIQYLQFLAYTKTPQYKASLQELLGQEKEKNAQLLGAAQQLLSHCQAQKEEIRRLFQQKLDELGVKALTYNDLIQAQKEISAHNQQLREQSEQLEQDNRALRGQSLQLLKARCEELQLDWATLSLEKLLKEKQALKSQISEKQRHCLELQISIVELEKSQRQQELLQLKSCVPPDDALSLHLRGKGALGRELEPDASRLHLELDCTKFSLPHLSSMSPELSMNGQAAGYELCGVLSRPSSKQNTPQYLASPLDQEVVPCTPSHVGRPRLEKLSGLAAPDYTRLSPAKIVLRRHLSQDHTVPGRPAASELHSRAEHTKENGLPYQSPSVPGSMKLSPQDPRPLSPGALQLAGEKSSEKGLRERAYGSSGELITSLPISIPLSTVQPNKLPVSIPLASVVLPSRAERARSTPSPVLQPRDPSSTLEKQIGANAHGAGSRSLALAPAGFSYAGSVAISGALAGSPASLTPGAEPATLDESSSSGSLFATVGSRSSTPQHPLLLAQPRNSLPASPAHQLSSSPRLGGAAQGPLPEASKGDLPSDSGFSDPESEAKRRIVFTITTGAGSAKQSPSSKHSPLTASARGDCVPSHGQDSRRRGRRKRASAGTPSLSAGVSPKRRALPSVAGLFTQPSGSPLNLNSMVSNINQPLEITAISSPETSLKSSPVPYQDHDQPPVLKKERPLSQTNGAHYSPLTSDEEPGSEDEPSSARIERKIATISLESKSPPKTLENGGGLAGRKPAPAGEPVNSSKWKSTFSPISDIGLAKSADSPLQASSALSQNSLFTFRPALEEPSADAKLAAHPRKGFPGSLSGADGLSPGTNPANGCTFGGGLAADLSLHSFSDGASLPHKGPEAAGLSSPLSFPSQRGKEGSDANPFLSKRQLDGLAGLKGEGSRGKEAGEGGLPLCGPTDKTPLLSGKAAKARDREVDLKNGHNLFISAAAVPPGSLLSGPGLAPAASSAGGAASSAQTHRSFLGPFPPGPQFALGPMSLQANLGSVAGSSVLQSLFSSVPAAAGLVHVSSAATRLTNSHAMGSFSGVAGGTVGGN
PRMT1, sequence (Q99873 whole entry): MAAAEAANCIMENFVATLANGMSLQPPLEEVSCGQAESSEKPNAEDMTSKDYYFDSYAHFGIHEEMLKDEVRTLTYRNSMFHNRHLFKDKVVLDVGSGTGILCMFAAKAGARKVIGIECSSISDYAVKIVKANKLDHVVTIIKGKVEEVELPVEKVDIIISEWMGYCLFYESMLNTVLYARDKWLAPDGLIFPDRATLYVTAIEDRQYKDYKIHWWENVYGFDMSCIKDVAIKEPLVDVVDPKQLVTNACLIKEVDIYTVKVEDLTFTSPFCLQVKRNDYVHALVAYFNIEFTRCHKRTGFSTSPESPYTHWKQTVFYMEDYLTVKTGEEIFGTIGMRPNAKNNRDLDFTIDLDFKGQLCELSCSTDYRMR

`OC[C@H]1O[C@@H](n2cnc3c(NCCCc4ccc(O)cc4)ncnc32)[C@H](O)[C@@H]1O` [Compound 16, (2R,3S,4R,5R)-2-(Hydroxymethyl)-5-(6-((3-(4-hydroxyphenyl)propyl)amino)-9H-purin-9-yl)tetrahydrofuran-3,4-diol]: on CamA [1], the “lower IC50 value, fold” value is listed as around 2.7 X. Further, at CamA [2] (compared to compound 15), the “lower KD value, fold” value is around 6.5 X. Also, the “inhibition of CcrM” value against CcrM was “none of them showed any significant inhibition”. Moreover, at Dam, the “inhibition of Dam” value is recorded as “none of them showed any significant inhibition”. For the same compound, the “inhibition of MettL5-Trm112” value at MettL5-Trm112 is given as “none of them showed any significant inhibition”. Moreover, the “inhibition of MettL16” value at MettL16 is given as “none of them showed any significant inhibition”. At DOT1L, the “inhibition of DOT1L” value is “none of them showed any significant inhibition”. Also, at G9a, the “inhibition of G9a” value is on record as “none of them showed any significant inhibition”. The “inhibition of PRMT1” value against PRMT1 is reported as “none of them showed any significant inhibition”.
Broadly, the Kd is the constant that tells how readily two partners part at equilibrium. Low readings indicate higher affinity, high ones lower affinity. With `CC(C)(C)OC(=O)N1CCC(CCCNc2ncnc3c2ncn3[C@@H]2O[C@H](CO)[C@@H](O)[C@H]2O)CC1` [Compound 39, tert-Butyl-4-(3-((9-((2R,3R,4S,5R)-3,4-dihydroxy-5-(hydroxymethyl)tetrahydrofuran-2-yl)-9H-purin-6-yl)amino)propyl)piperidine-1-carboxylate], at CamA [1], the “higher potency, fold” value is on record as 12 ×. The Kd on CamA [2] (KD ± SD, ITC, 25 °C) was around 200 nM. Moreover, at CamA [2] (from that of compound 37), the “KD improved, fold” value is on record as around 8 ×. Also, the “inhibition of CcrM” value on CcrM was “none of them showed any significant inhibition”. Moreover, at Dam, the “inhibition of Dam” value is “none of them showed any significant inhibition”. At MettL5-Trm112, the “inhibition of MettL5-Trm112” value is listed as “none of them showed any significant inhibition”. In addition, the “inhibition of MettL16” value against MettL16 is listed as “none of them showed any significant inhibition”. Further, the “inhibition of DOT1L” value against DOT1L was “none of them showed any significant inhibition”. Further, the “inhibition of G9a” value against G9a was “none of them showed any significant inhibition”. For the same compound, at PRMT1, the “inhibition of PRMT1” value is listed as “none of them showed any significant inhibition”.

The values above are taken from paper PMC9841527 (Journal of Medicinal Chemistry, 2022).
